Data: US20060088843A1 (priority 2004, published 2006)

Experiments:
[1] = test system: NAChR; format: binding
[2] = test system: Semliki Forest virus; conditions: cited from earlier work
[3] = test system: herpesvirus; conditions: cited from earlier work
[4] = pI and pH of protein solutions; format: physicochemical
[5] = test system: mice; test: Toxicity assay in mice
[6] = Antiviral activity in similar assays (not specified)

Substance	binding to native receptor [1]	antiviral activity against Semliki Forest virus [2]	antiviral activity against herpes [3]	pH of solution [4]	pI [4]	LD50 in mice ([5]; injected subcutaneously or intra-peritoneally)	time to death ([5]; injection of 1.5 mcg, 25 g mouse)	antiviral activity [6]
autoclaved alpha-cobratoxin	still capable of binding to its native receptor	no antiviral activity	no antiviral activity					
alpha-cobratoxin [native alpha-cobratoxin]		does not have any antiviral activity	does not have any antiviral activity	10.4	9.6	1.2 µg	≤ 25 min	does not demonstrate antiviral activity
